Measured values reported in patent US4193997A, “Thieno[2,3-c] and [3,2-c]pyridines, process for their preparation and therapeutic applications thereof” (Parcor, priority 1977, dated 1980).

How the values were obtained:
[1] = system: A.D.P.-induced blood-platelet aggregation; test: A.D.P.-induced blood-platelet aggregation after oral treatment of rats; assay type: in vivo, Wistar rats; conditions: Rattus norvegicus, 100 mg/kg oral, 3 hrs after treatment, 10 μM A.D.P. solution, read-out: Percent inhibition of blood-platelet aggregation, A.D.P.
Method: (§1) Blood is taken from the jugular vein of Wistar rats. From this citrated blood, and after centrifugation, a plasma containing 600,000±20,000 blood-platelets per mm 3 is reconstituted, which plasma is used in all aggregation determinations.
(§2) 0.4 ml plasma is placed in a siliconized tube provided with a magnet bar which is also siliconized. The tube is introduced into an aggregometer connected to an apparatus which records the optical density variations. When light transmission reaches a stable value, 0.5 ml of a solution containing 10 μM A.D.P. (adenosine diphosphate) is introduced into the tube.
Blood-platelet aggregation then induces an increase of light transmission, followed by a decrease subsequent to the disaggregation stage.
The maximal optical density variation thus determined characterizes the extent of the aggregation.
(§3) Different groups of 20 rats each are used. Each group is orally administered a test derivative, at a dosage of 100 mg/kg. The results obtained during both tests are reported in following Table I which indicates the percent inhibition of blood-platelet aggregation obtained with respect to the reference group, 3 hrs after treatment.

[2] = system: ovalbumin-induced systemic edema; test: Ovalbumin-induced systemic edema method; assay type: in vivo; conditions: rats, 100 mg/kg oral one hour before and with ovalbumin
Method: Rats are administered a simultaneous intraperitoneal injection of 1 ml ovalbumin and 0.5 ml of a 1% aqueous Evans Blue solution. The animals of the treated group are additionally orally administered 100 mg/kg of the test derivative, one hour prior to ovalbumin administration and then simultaneously with said ovalbumin administration. The intensity of the phenomenon thus induced is rated according to a scale from 1 to 5, according to the progress of the inflammatory syndrome. The determinations are effected after 2 hours and after 3 hours. Thus are determined the mean intensity of the edema and the percent decrease of the edema reaction.

Red blood cells [3] = test: Anti-sludge in vitro, "preventive" treatment (protamine sulfate agglomeration of red blood cells); assay type: cell-based, rats; conditions: for percent agglomerates formed by 5 RBC: controls 6 or 8; for percent agglomerates formed by 4 RBC: controls 9 or 8; for percent agglomerates formed by 3 RBC: controls 13 or 14; for percent agglomerates formed by 2 RBC: controls 17 or 16; for percent free red blood cells (size 1): controls 32 (n°3, 4, 6) or 30 (n°11, 12, 17)
Method: (§4) Red blood cells of rats are washed three times and diluted to 1/250 concentration in physiological saline. In each of 5 tubes are placed 0.6 ml of this suspension and 0.2 ml physiological saline. Into each tube is then added, respectively, an amount of 0, 25, 50, 100 and 200 μg of the test derivative contained in 0.2 ml of solution. After incubation for one hour at 37° C., 0.2 ml of a solution containing 125 μg/ml protamine sulfate is added thereto, and the resulting material is further incubated for 0.5 hour at 37° C. The red blood cells of each tube are then examined with a Mallasez cell, and the percent free red blood cells (RBC) and the percent agglomerates formed by 2, 3, 4, 5 . . . RBC are noted.

mice = test: Antalgic action, acetic acid method according to Koster, Anderson & de Beer; assay type: in vivo; conditions: 100 mg/kg oral, 30 minutes prior to i.p. acetic acid
Description: (b) Acetic acid method, according to Koster, Anderson & de Beer (Fed. Proced., 18, 1959, 412, 1, 626)
Intraperitoneal injection of a dilute acetic acid solution induces, in mice, characteristic writhing movements which are repeated due to the effect of pain.

[4] = system: collagen-induced blood-platelet aggregation; test: Collagen-induced blood-platelet aggregation after oral treatment of rats; assay type: in vivo, Wistar rats; conditions: Rattus norvegicus, 100 mg/kg oral, 3 hrs after treatment, collagen (bovine tendon extract), read-out: Percent inhibition of blood-platelet aggregation, Collagen
Method: as §1, §2
The A.D.P. solution is substituted with a collagen solution (bovine tendon extract).
as §3

mouse = test: Antalgic action, mechanical stimulation method according to Haffner; assay type: in vivo; conditions: 100 mg/kg oral
Method: (a) Mechanical stimulation method according to Haffner (Deutsch. Wish., 1959, 55, 731-733). This method comprises placing a pressure forceps at the base of the tail of a mouse and recording the number of bites self-inflicted by the animal in its endeavour to remove the forceps. The decrease of the number of bites prior and subsequent to oral administration of the test compound at a dosage of 100 mg/kg provides a measure of the antalgic activity of the derivatives of this invention.

[5] = system: carrageenin-induced edema; test: Localized carrageenin-induced edema method; assay type: in vivo; conditions: rats, 100 mg/kg oral one hour before, with, and 1 and 2.5 hours after carrageenin
Method: 0.1 ml of a 1% carrageenin solution is injected at time O in the metatarsal flexor muscles of the right hind limb of rats.
The animals of the treated group are additionally orally administered 100 mg/kg of the test derivative, respectively one hour prior to, and then simultaneously with the phlogogenic agent, and then one hour and 2.5 hours thereafter. The determinations effected with a ROCH micrometer at times 0, 1 hr, 2 hrs, 3 hrs and 5 hrs after carrageenin administration make it possible to determine the percent anti-inflammatory activity, as a function of time.

Red blood cells [6] = test: Anti-sludge in vitro, "curative" procedure (protamine sulfate agglomeration of red blood cells); assay type: cell-based, rats; conditions: 25 μg; for percent aggregates, size of agglomerates 5: reference tests 8 or 9; for percent aggregates, size of agglomerates 4: reference tests 11; for percent aggregates, size of agglomerates 3: reference tests 15 or 16; for percent aggregates, size of agglomerates 2: reference tests 19; for percent aggregates, size of agglomerates 1: reference tests 33 (n°3, 4, 6) or 30 (n°11, 12, 17)
Method: as §4
The test was repeated according to a "curative" procedure. The red blood cells were first contacted with the protamine sulfate and, after incubation for 0.5 hour, 0.2 ml containing 25 μg of the test derivative were added thereto, after which the material was further incubated for one hour at 37° C.

CC(=O)N1CCc2ccsc2C1=O [Derivative n°11, 6-Acetyl-7-oxo-4,5,6,7-tetrahydro-thieno[2,3-c]-pyridine]
inhibition at 100 mg/kg [1]: 63% | Percent decrease of the edema reaction After 2 hours [2]: 45% | Percent decrease of the edema reaction After 3 hours [2]: 55% | percent agglomerates formed by 5 RBC (Red blood cells [3]; 25 μg per tube): 2% | percent agglomerates formed by 4 RBC (Red blood cells [3]; 25 μg per tube): 2% | percent agglomerates formed by 3 RBC (Red blood cells [3]; 25 μg per tube): 14% | percent agglomerates formed by 2 RBC (Red blood cells [3]; 25 μg per tube): 22% | percent free red blood cells (size 1) (Red blood cells [3]; 25 μg per tube): 60% | percent agglomerates formed by 5 RBC (Red blood cells [3]; 50 μg per tube): 1% | percent agglomerates formed by 4 RBC (Red blood cells [3]; 50 μg per tube): 2% | percent agglomerates formed by 3 RBC (Red blood cells [3]; 50 μg per tube): 10% | percent agglomerates formed by 2 RBC (Red blood cells [3]; 50 μg per tube): 22% | percent free red blood cells (size 1) (Red blood cells [3]; 50 μg per tube): 65% | percent agglomerates formed by 4 RBC (Red blood cells [3]; 100 μg per tube): 1% | percent agglomerates formed by 3 RBC (Red blood cells [3]; 100 μg per tube): 5% | percent agglomerates formed by 2 RBC (Red blood cells [3]; 100 μg per tube): 13% | percent free red blood cells (size 1) (Red blood cells [3]; 100 μg per tube): 81% | percent agglomerates formed by 4 RBC (Red blood cells [3]; 200 μg per tube): 1% | percent agglomerates formed by 3 RBC (Red blood cells [3]; 200 μg per tube): 2% | percent agglomerates formed by 2 RBC (Red blood cells [3]; 200 μg per tube): 14% | percent free red blood cells (size 1) (Red blood cells [3]; 200 μg per tube): 83% | percent antalgia (mice): 71% | inhibition at 100 mg/kg [4]: 92.8% | mean percent antalgia after 30 min. (mouse): 65% | mean percent antalgia after 1 hr (mouse): 61% | mean percent antalgia after 2 hrs (mouse): 57% | mean percent antalgia after 3 hrs (mouse): 50% | Percent anti-inflammatory activity after 1 hour [5]: 41% | Percent anti-inflammatory activity after 2 hours [5]: 50% | Percent anti-inflammatory activity After 3 hours [5]: 58% | percent aggregates, size of agglomerates 5 (Red blood cells [6]): 1% | percent aggregates, size of agglomerates 4 (Red blood cells [6]): 2% | percent aggregates, size of agglomerates 3 (Red blood cells [6]): 4% | percent aggregates, size of agglomerates 2 (Red blood cells [6]): 15% | percent aggregates, size of agglomerates 1 (Red blood cells [6]): 78%

O=C1NCCc2ccsc21 [Derivative n°12, 7-Oxo-4,5,6,7-tetrahydro-thieno[2,3-c]pyridine]
inhibition at 100 mg/kg [1]: 62.7% | Percent decrease of the edema reaction After 2 hours [2]: 53% | Percent decrease of the edema reaction After 3 hours [2]: 64% | percent agglomerates formed by 5 RBC (Red blood cells [3]; 25 μg per tube): 1% | percent agglomerates formed by 4 RBC (Red blood cells [3]; 25 μg per tube): 2% | percent agglomerates formed by 3 RBC (Red blood cells [3]; 25 μg per tube): 15% | percent agglomerates formed by 2 RBC (Red blood cells [3]; 25 μg per tube): 21% | percent free red blood cells (size 1) (Red blood cells [3]; 25 μg per tube): 61% | percent agglomerates formed by 5 RBC (Red blood cells [3]; 50 μg per tube): 2% | percent agglomerates formed by 4 RBC (Red blood cells [3]; 50 μg per tube): 2% | percent agglomerates formed by 3 RBC (Red blood cells [3]; 50 μg per tube): 12% | percent agglomerates formed by 2 RBC (Red blood cells [3]; 50 μg per tube): 20% | percent free red blood cells (size 1) (Red blood cells [3]; 50 μg per tube): 64% | percent agglomerates formed by 4 RBC (Red blood cells [3]; 100 μg per tube): 2% | percent agglomerates formed by 3 RBC (Red blood cells [3]; 100 μg per tube): 2% | percent agglomerates formed by 2 RBC (Red blood cells [3]; 100 μg per tube): 18% | percent free red blood cells (size 1) (Red blood cells [3]; 100 μg per tube): 78% | percent agglomerates formed by 4 RBC (Red blood cells [3]; 200 μg per tube): 1% | percent agglomerates formed by 3 RBC (Red blood cells [3]; 200 μg per tube): 1% | percent agglomerates formed by 2 RBC (Red blood cells [3]; 200 μg per tube): 9% | percent free red blood cells (size 1) (Red blood cells [3]; 200 μg per tube): 89% | percent antalgia (mice): 77% | inhibition at 100 mg/kg [4]: 90.6% | mean percent antalgia after 30 min. (mouse): 81% | mean percent antalgia after 1 hr (mouse): 78% | mean percent antalgia after 2 hrs (mouse): 73% | mean percent antalgia after 3 hrs (mouse): 67% | Percent anti-inflammatory activity after 1 hour [5]: 42% | Percent anti-inflammatory activity after 2 hours [5]: 54% | Percent anti-inflammatory activity After 3 hours [5]: 61% | percent aggregates, size of agglomerates 4 (Red blood cells [6]): 1% | percent aggregates, size of agglomerates 3 (Red blood cells [6]): 3% | percent aggregates, size of agglomerates 2 (Red blood cells [6]): 14% | percent aggregates, size of agglomerates 1 (Red blood cells [6]): 82%

CC(=O)N1CC(c2ccccc2)c2ccsc2C1=O (stereo not drawn) [Derivative n°17, 4-Phenyl-6-acetyl-7-oxo-4,5,6,7-tetrahydro-thieno[2,3-c]-pyridine]
inhibition at 100 mg/kg [1]: 61.3% | Percent decrease of the edema reaction After 2 hours [2]: 46% | Percent decrease of the edema reaction After 3 hours [2]: 58% | percent agglomerates formed by 5 RBC (Red blood cells [3]; 25 μg per tube): 3% | percent agglomerates formed by 4 RBC (Red blood cells [3]; 25 μg per tube): 3% | percent agglomerates formed by 3 RBC (Red blood cells [3]; 25 μg per tube): 13% | percent agglomerates formed by 2 RBC (Red blood cells [3]; 25 μg per tube): 23% | percent free red blood cells (size 1) (Red blood cells [3]; 25 μg per tube): 58% | percent agglomerates formed by 5 RBC (Red blood cells [3]; 50 μg per tube): 1% | percent agglomerates formed by 4 RBC (Red blood cells [3]; 50 μg per tube): 2% | percent agglomerates formed by 3 RBC (Red blood cells [3]; 50 μg per tube): 4% | percent agglomerates formed by 2 RBC (Red blood cells [3]; 50 μg per tube): 28% | percent free red blood cells (size 1) (Red blood cells [3]; 50 μg per tube): 65% | percent agglomerates formed by 5 RBC (Red blood cells [3]; 100 μg per tube): 1% | percent agglomerates formed by 4 RBC (Red blood cells [3]; 100 μg per tube): 1% | percent agglomerates formed by 3 RBC (Red blood cells [3]; 100 μg per tube): 4% | percent agglomerates formed by 2 RBC (Red blood cells [3]; 100 μg per tube): 14% | percent free red blood cells (size 1) (Red blood cells [3]; 100 μg per tube): 80% | percent agglomerates formed by 4 RBC (Red blood cells [3]; 200 μg per tube): 1% | percent agglomerates formed by 3 RBC (Red blood cells [3]; 200 μg per tube): 2% | percent agglomerates formed by 2 RBC (Red blood cells [3]; 200 μg per tube): 9% | percent free red blood cells (size 1) (Red blood cells [3]; 200 μg per tube): 88% | percent antalgia (mice): 68% | inhibition at 100 mg/kg [4]: 91.7% | mean percent antalgia after 30 min. (mouse): 70% | mean percent antalgia after 1 hr (mouse): 65% | mean percent antalgia after 2 hrs (mouse): 60% | mean percent antalgia after 3 hrs (mouse): 55% | Percent anti-inflammatory activity after 1 hour [5]: 37% | Percent anti-inflammatory activity after 2 hours [5]: 49% | Percent anti-inflammatory activity After 3 hours [5]: 54% | percent aggregates, size of agglomerates 5 (Red blood cells [6]): 1% | percent aggregates, size of agglomerates 4 (Red blood cells [6]): 1% | percent aggregates, size of agglomerates 3 (Red blood cells [6]): 2% | percent aggregates, size of agglomerates 2 (Red blood cells [6]): 16% | percent aggregates, size of agglomerates 1 (Red blood cells [6]): 80%
